ChEMBL document CHEMBL1201862, “PubChem BioAssay data set” (2004)
The source made the active and inactive calls.

Experiments:
[1] = fluconazole-exposed Candida albicans growth modulators – fluorescence, retest, confirmation (AID 2467); assay type: functional, cell-based
[2] = viability loss in HeLa cells – cytotoxicity control for MgcRacGAP inhibitor project, dose response (AID 624300); assay type: functional
BJ = experiment: cells; assay type: functional, cell-based; conditions: Homo sapiens
Protein RecA = target: T1, Protein RecA (Mycobacterium tuberculosis, UniProt P9WHJ3); experiment: Fluorescence Cell-Free Homogeneous Dose Retest to Identify Inhibitors of RecA-Intein Splicing Activity. [Related pubchem assays (depositor defined):AID2097, AID2223, AID489010, AID492950]; assay type: functional
T1 sequence (P9WHJ3 whole entry): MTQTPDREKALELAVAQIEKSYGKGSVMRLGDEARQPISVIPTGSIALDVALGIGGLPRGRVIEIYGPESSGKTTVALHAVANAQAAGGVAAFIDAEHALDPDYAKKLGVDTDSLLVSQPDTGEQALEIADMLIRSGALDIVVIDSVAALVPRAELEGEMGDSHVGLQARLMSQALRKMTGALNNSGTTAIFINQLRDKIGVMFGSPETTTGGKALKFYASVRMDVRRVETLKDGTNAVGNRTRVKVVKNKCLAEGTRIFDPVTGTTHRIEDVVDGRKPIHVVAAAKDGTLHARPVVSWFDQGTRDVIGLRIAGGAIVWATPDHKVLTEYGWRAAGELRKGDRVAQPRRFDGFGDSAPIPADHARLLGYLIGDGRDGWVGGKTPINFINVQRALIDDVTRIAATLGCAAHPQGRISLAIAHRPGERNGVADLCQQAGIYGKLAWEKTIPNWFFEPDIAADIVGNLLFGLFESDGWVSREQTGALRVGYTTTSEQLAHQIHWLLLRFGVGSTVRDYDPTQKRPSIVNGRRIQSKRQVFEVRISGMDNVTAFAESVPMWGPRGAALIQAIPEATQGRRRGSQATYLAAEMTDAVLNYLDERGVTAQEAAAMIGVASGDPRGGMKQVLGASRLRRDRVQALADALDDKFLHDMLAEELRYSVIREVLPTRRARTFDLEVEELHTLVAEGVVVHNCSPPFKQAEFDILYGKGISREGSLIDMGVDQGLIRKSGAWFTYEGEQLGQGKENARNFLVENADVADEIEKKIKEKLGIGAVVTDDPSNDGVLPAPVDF

[3] = reduction of Shn3 3'UTR-driven luciferase in osteoblasts – cell-based, Clone20 osteoblasts, firefly luciferase, cherry-picked, dose response (AID 624132); assay type: functional;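 further: firefly luciferase luminescence from reporter carrying the Shn3 3'UTR in osteoblasts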
INS1 = experiment: INS-1E survival protection against cytokine death – cell-based, luminescence, retest, dose response (AID 449756); assay type: functional; conditions: Rattus norvegicus;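 further: cell death triggered by IL-1 beta plus TNF-alpha plus IFN-gamma mixture; protective hits raise ATP signal compared with cytokine alone wells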
[4] = target: Sphingosine 1-phosphate receptor 2 (Homo sapiens, UniProt O95136); experiment: Dose Response Cell Based Assay for Antagonists of the S1P2 Receptor. [Related pubchem assays: 856, 736 ]; assay type: functional
[5] = alpha-synuclein stem-loop luciferase translation blockers – H4 neuroglioma cells, luminescence, confirmation (AID 1988); assay type: functional, cell-based
[6] = target: Dual specificity protein kinase CLK2 (Homo sapiens, UniProt P49760); assay type: functional
[7] = target: STE20-like serine/threonine-protein kinase (Homo sapiens, UniProt Q9H2G2); assay type: functional
[8] = target: Proto-oncogene tyrosine-protein kinase receptor Ret (Homo sapiens, UniProt P07949); assay type: functional;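 further: measured within a kinome-wide profiling panel, RET as the panel member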
[9] = target: Megakaryocyte-associated tyrosine-protein kinase (Homo sapiens, UniProt P42679); assay type: functional;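 further: affinity measured as one member of a kinase panel (Navigating the Kinome) against MATK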
[10] = target: Ribosomal protein S6 kinase alpha-5 (Homo sapiens, UniProt O75582); assay type: functional
[11] = target: Casein kinase II subunit alpha (Homo sapiens, UniProt P68400); assay type: functional
[12] = target: Serine/threonine-protein kinase N2 (Homo sapiens, UniProt Q16513); assay type: functional
[13] = target: Mitogen-activated protein kinase 8 (Homo sapiens, UniProt P45983); assay type: functional;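 further: value comes from one member of a kinome-wide kinase profiling panel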
[14] = target: Tyrosine-protein kinase receptor TYRO3 (Homo sapiens, UniProt Q06418); assay type: functional;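 further: TYRO3 value obtained as one member of a kinome-wide profiling panel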
[15] = target: Tyrosine-protein kinase Srms (Homo sapiens, UniProt Q9H3Y6); assay type: functional;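 further: SRMS measured as one member of a kinome-wide kinase profiling panel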
[16] = target: Homeodomain-interacting protein kinase 4 (Homo sapiens, UniProt Q8NE63); assay type: functional
[17] = target: Death-associated protein kinase 3 (Homo sapiens, UniProt O43293); assay type: functional;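 further: measured as one member of a kinome-wide profiling panel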
LIM domain kinase 1 = LIM domain kinase 1 (Homo sapiens, UniProt P53667); experiment: Navigating the Kinome. Panel member name: LIMK1; assay type: functional
[18] = target: Protein kinase C iota type (Homo sapiens, UniProt P41743); assay type: functional;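 further: measured within a kinome-wide kinase panel, PRKCI as panel member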
[19] = target: Protein kinase C delta type (Homo sapiens, UniProt Q05655); assay type: functional
[20] = target: Leucine-rich repeat serine/threonine-protein kinase 2 (Homo sapiens, UniProt Q5S007); assay type: functional;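 further: value from a broad kinome-wide panel profiling study in which LRRK2 was one of the kinases tested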
[21] = target: Protein kinase C gamma type (Homo sapiens, UniProt P05129); assay type: functional
[22] = target: Serine/threonine-protein kinase MRCK alpha (Homo sapiens, UniProt Q5VT25); assay type: functional
[23] = target: Serine/threonine-protein kinase PLK3 (Homo sapiens, UniProt Q9H4B4); assay type: functional
[24] = target: ALK tyrosine kinase receptor (Homo sapiens, UniProt Q9UM73); assay type: functional;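 further: ALK tested as one member of a kinase panel screen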
[25] = target: Serine/threonine-protein kinase TAO1 (Homo sapiens, UniProt Q7L7X3); assay type: functional
[26] = target: Tyrosine-protein kinase ABL1 (Homo sapiens, UniProt P00519); assay type: functional
Troponin, cardiac muscle = Troponin, cardiac muscle (Homo sapiens, UniProt P19429+P45379+P63316); experiment: compounds desensitizing RTF to calcium – biochemical, fluorescence, cardiac regulated thin filaments, triplicate IC50, dose response (AID 504742); assay type: protein-complex assay
[27] = target: Induced myeloid leukemia cell differentiation protein Mcl-1 (Homo sapiens, UniProt Q07820); assay type: functional

With CN(C)S(=O)(=O)Oc1cccc(C(=O)Nc2ccc(Cl)c(Cl)c2)c1 the EC50 [1] was 0.574 µM (active).
In the case of Cc1ccc2[nH]c(/C(C#N)=C/c3ccc(O)c(O)c3)nc2c1, the CC50 [2] is reported as 100 µM (active).
In the case of COC(=O)C1CN(C#N)N(c2ccc(Cl)cc2)C12c1ccccc1-c1ccccc12 (configuration not stated), the EC50 (BJ) is reported as 2.9 µM (active), the EC50 (Protein RecA) is reported as 7 µM (active) and the AC50 [3] is reported as < 0.26 µM (active). The AC50 (INS1) was 2.5 µM (active), the IC50 [4] was 2.79 µM (active) and the EC50 [5] was 7.38 µM (active).
In the case of Nc1noc2cccc(-c3cccc(O)c3)c12, the Ki [6] is reported as > 20 µM (inactive), the Ki [7] is reported as > 10 µM (inactive) and the Ki [8] is reported as 0.794 µM (active). The Ki [9] was > 2 µM (inactive), the Ki [10] was 0.631 µM (active) and the Ki [11] was > 6.31 µM (inactive). The Ki [12] was > 7.94 µM (inactive), the Ki [13] was > 25.1 µM (inactive) and the Ki [14] was > 7.94 µM (inactive). The Ki [15] was > 1.58 µM (inactive), the Ki [16] was > 7.94 µM (inactive) and the Ki [17] was > 25.1 µM (inactive). The Ki (LIM domain kinase 1) was 2.51 µM (active), the Ki [18] was > 5.01 µM (inactive) and the Ki [19] was > 7.94 µM (inactive). For the same compound, the Ki [20] was 3.16 µM (active), the Ki [21] was > 7.94 µM (inactive) and the Ki [22] was > 10 µM (inactive). For the same compound, the Ki [23] was > 7.94 µM (inactive), the Ki [24] was 6.31 µM (active) and the Ki [25] was > 25.1 µM (inactive). For the same compound, the Ki [26] was > 1 µM (inactive).
With O=C1NC(=S)S/C1=C\C=C\c1ccc([N+](=O)[O-])o1 the IC50 (Troponin, cardiac muscle) was 40.2 µM (inactive) and the IC50 [27] was 1.92 µM (active).
